17 compounds from patent publication US9181259B2 (LEO PHARMA A/S, priority 2012, dated 2015) can be followed below.

Data set [1] in a line: Hepatic intrinsic clearance following incubation in human liver microsomes. It is filed as in vitro ADME. Conditions: NADPH regenerating system, 0-30 min, 37 °C. On the procedure: Hepatic Extraction Ratio from Hepatic Intrinsic Clearance Following Incubation in Human Liver Microsomes
The general procedure consists of an automated incubation system and LC-MS/MS analysis with human liver microsomes. Human liver microsomes are thawed rapidly in a waterbath at 37° C. and kept on ice until use. The human liver microsomes are diluted with 50 mM potassium phosphate buffer pH 7.4 to a protein concentration of 0.55 mg/mL. Test compounds and positive controls (Verapamil and Dextromethorphan, positive controls for CYP3A4 for CYP2D6 isoforms, respectively) are dissolved in methanol (or other appropriate solvent, if necessary) in order to obtain a 5 mM solution which is further diluted to the concentration of 50 μM. The stock solutions are prepared immediately before the test.
5 μL of 50 μM test compounds and controls are added to 445 μL-of the 0.55 mg/mL microsomes solution and the incubation mixture are pre-warmed at 37° C. for 5 minutes.
The incubation reactions are initiated by adding 50 μL of pre-warmed NADPH regenerating system to the incubation mixtures. 50 μL-aliquots will be taken from the incubation mixtures at: 0, 3, 6, 9, 15 and 30 minutes and the reactions are stopped by adding 100 μL of ACN containing Rolipram, used as generic Internal Standard (1S). Samples are then diluted with 120 μL of Milli-Q water and centrifuged at 3000 rpm for 10 minutes, prior the LC-MS/MS analysis.
The integrated peak areas for test compounds at the selected time points are divided by the respective peak areas of the IS and the percent of parent remaining is calculated by normalizing the peak area ratio of parent to IS at 0 min. Observed rate constant (kobs) for parent degradation is calculated by determining the slope of the line of the graph of the natural log of percentage parent remaining versus time of incubation. From the rate of depletion (min-1) and volume of the incubation (mL), clearance is estimated. This is scaled for the protein in the incubation relative to that in the intact liver, for all species (mL/min/g liver).
Values for the Human in vitro Clint are expressed as mL/min/g liver.
Assuming a liver weight of 25.7 g/kg and a liver blood flow of 20.7 mL/min/kg, the hepatic extraction ratio, Eh, can be derived from the Human in vitro Clint:
E.g. a Human in vitro Clint of 2.4 mL/min/g liver corresponds to a hepatic extraction ratio of 75%.
Some compounds of the present invention were tested according to example 121.

A further data set addresses T1, NK1 receptor (Homo sapiens, UniProt P25103).
T1 construct: Measurement of NK1 Receptor Mediated Intracellular [Ca^2+]; Mobilization in U251 MG Cells Using FLIPR; endogenous in cells; host or cells: U251 MG cells
Put plainly: NK1 receptor mediated intracellular [Ca2+] mobilization in U251 MG cells using FLIPR. It is filed as cell-based. Conditions: antagonist potency against Substance P (EC80), normalized to 100 nM Aprepitant, read-out: U251MG (FLIPR pIC50) (converted). The procedure, abridged: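 Fluo-4-loaded U251 MG cells were preincubated with compound (0.5% DMSO final), with any agonist effect read for 5 min, then 10 min more at 37 °C before Substance P at EC80. Peak FLIPR fluorescence change was read, and IC50 came from a four-parameter fit as the midpoint between fitted top and bottom.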

Structures can show the parent of a compound that is named as a salt.

T1 sequence (P25103 whole entry): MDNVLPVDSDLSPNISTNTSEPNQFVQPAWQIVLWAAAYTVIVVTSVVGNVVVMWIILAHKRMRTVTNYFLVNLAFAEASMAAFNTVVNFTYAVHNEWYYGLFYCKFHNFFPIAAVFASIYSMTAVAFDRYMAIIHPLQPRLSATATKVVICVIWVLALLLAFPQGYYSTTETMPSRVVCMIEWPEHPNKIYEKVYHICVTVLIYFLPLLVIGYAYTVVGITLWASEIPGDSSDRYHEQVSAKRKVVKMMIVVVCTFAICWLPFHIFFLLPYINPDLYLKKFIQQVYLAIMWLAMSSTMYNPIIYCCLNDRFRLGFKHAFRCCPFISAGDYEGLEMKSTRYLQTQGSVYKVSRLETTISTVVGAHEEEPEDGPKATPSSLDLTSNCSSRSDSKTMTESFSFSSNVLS

Take `Cc1ccccc1C1C2CC3(CCN(C)CC3)C(=O)N2CCN1C(=O)N(C)Cc1cc(C(F)(F)F)cc(C(F)(F)F)c1` (single isomer, unassigned) [Compound 47, N-{[3,5-bis(trifluoromethyl)phenyl]methyl}-N,1-dimethyl-4′-(2-methylphenyl)-1′-oxo-hexahydro-1′H-spiro[piperidine-4,2′-pyrrolo[1,2-a]piperazine]-5′-carboxamide]: in data set [1], the “Human in vitro Clint (mL/min/g liver)” value is 0.4 mL/min/g liver. Also, on NK1 receptor, the IC50 was 0.0933 nM.

In the case of `Cc1ccccc1C1C2CCC(=O)N2CCN1C(=O)N(C)Cc1cc(F)cc(C(F)(F)F)c1` (single isomer, unassigned) [Compound 3, N-{[3-fluoro-5-(trifluoromethyl)phenyl]methyl}-N-methyl-1-(2-methylphenyl)-6-oxo-octahydropyrrolo[1,2-a]piperazine-2-carboxamide], the “Human in vitro Clint (mL/min/g liver)” value in data set [1] was determined as 9.5 mL/min/g liver. For the same compound, the IC50 at NK1 receptor is 1.38 nM.

Turning to `Cc1cc(CN(C)C(=O)N2CCN3C(=O)C(CCO)(CCO)C[C@H]3[C@@H]2c2ccccc2C)cc(C(F)(F)F)c1` [Compound 77, (1S,8aS)-7,7-bis(2-hydroxyethyl)-N-methyl-N-(3-methyl-5-(trifluoromethyl)benzyl)-6-oxo-1-o-tolylhexahydropyrrolo[1,2-a]pyrazine-2(1H)-carboxamide], the “Human in vitro Clint (mL/min/g liver)” value in data set [1] is recorded as 15 mL/min/g liver. For the same compound, the IC50 at NK1 receptor was 0.0631 nM.

Turning to `Cc1ccccc1C1C2CC(CCO)(CCO)CN2CCN1C(=O)N(C)Cc1cc(C(F)(F)F)cc(C(F)(F)F)c1` (single isomer, unassigned) [Compound 66, N-{[3,5-bis(trifluoromethyl)phenyl]methyl}-7,7-bis(2-hydroxyethyl)-N-methyl-1-(2-methylphenyl)-octahydropyrrolo[1,2-a]piperazine-2-carboxamide], in data set [1], the “Human in vitro Clint (mL/min/g liver)” value is reported as 4.2 mL/min/g liver. In addition, the IC50 at NK1 receptor was 0.0794 nM.

As to `Cc1cc([C@H](C)N(C)C(=O)N2CCN3C(=O)C(CCO)(CCO)C[C@H]3[C@@H]2c2ccccc2C)cc(C(F)(F)F)c1` [Compound 84, (1S,8aS)-7,7-bis(2-hydroxyethyl)-N-methyl-N-((S)-1-(3-methyl-5-(trifluoromethyl)phenyl)ethyl)-6-oxo-1-o-tolylhexahydropyrrolo[1,2-a]pyrazine-2(1H)-carboxamide], in data set [1], the “Human in vitro Clint (mL/min/g liver)” value is listed as 8.5 mL/min/g liver. Also, at NK1 receptor, the IC50 was 0.0631 nM.

On to `Cc1ccccc1[C@H]1[C@@H]2CC(CO)(CO)C(=O)N2CCN1C(=O)N(C)[C@H](C)c1cc(C(F)(F)F)cc(C(F)(F)F)c1` [Compound 104, (1S,8aS)-N-((R)-1-(3,5-bis(trifluoromethyl)phenyl)ethyl)-7,7-bis(hydroxymethyl)-N-methyl-6-oxo-1-o-tolylhexahydropyrrolo[1,2-a]pyrazine-2(1H)-carboxamide], for which, in data set [1], the “Human in vitro Clint (mL/min/g liver)” value was found to be 3.1 mL/min/g liver. Further, the IC50 on NK1 receptor was 0.1 nM.

Turning to `Cc1cc([C@@H](C)N(C)C(=O)N2CCN3C(=O)C(CO)(CO)C[C@H]3[C@@H]2c2ccccc2C)cc(C(F)(F)F)c1` [Compound 103, (1S,8aS)-7,7-bis(hydroxymethyl)-N-methyl-N-((R)-1-(3-methyl-5-(trifluoromethyl)phenyl)ethyl)-6-oxo-1-o-tolylhexahydropyrrolo[1,2-a]pyrazine-2(1H)-carboxamide], in data set [1], the “Human in vitro Clint (mL/min/g liver)” value is on record as 4.8 mL/min/g liver. For the same compound, the IC50 at NK1 receptor is 0.0794 nM.

For `Cc1ccccc1C1C2CC3(CCN(C)CC3)C(=O)N2CCN1C(=O)N(C)Cc1cc(C(F)(F)F)cc(C(F)(F)F)c1` (racemic) [Compound 45, N-{[3,5-bis(trifluoromethyl)phenyl]methyl}-N,1-dimethyl-4′-(2-methylphenyl)-1′-oxo-hexahydro-1′H-spiro[piperidine-4,2′-pyrrolo[1,2-a]piperazine]-5′-carboxamide], the “Human in vitro Clint (mL/min/g liver)” value in data set [1] is on record as 1.9 mL/min/g liver. Further, on NK1 receptor, the IC50 was 0.166 nM.

With `Cc1ccccc1[C@H]1[C@@H]2CC(CCO)(CCO)C(=O)N2CCN1C(=O)N(C)[C@H](C)c1cc(C(C)C)cc(C(F)(F)F)c1` [Compound 113, (1S,8aS)-7,7-bis(2-hydroxyethyl)-N-((R)-1-(3-isopropyl-5-(trifluoromethyl)phenyl)ethyl)-N-methyl-6-oxo-1-o-tolylhexahydropyrrolo[1,2-a]pyrazine-2(1H)-carboxamide], in data set [1], the “Human in vitro Clint (mL/min/g liver)” value came to 56 mL/min/g liver. The IC50 on NK1 receptor was 0.0316 nM.

Turning to `Cc1ccccc1C1C2CC(CO)CN2CCN1C(=O)N(C)Cc1cc(C(F)(F)F)cc(C(F)(F)F)c1` (single isomer, unassigned) [Compound 52, N-{[3,5-bis(trifluoromethyl)phenyl]methyl}-7-(hydroxymethyl)-N-methyl-1-(2-methylphenyl)-octahydropyrrolo[1,2-a]piperazine-2-carboxamide; methanesulfonic acid salt], the “Human in vitro Clint (mL/min/g liver)” value in data set [1] came to 3.1 mL/min/g liver. In addition, at NK1 receptor, the IC50 is 0.513 nM.

Turning to `Cc1ccccc1C1C2CC(C)(C(=O)N(C)C)C(=O)N2CCN1C(=O)N(C)Cc1cc(C(F)(F)F)cc(C(F)(F)F)c1` (single isomer, unassigned) [Compound 26, 2-N-{[3,5-bis(trifluoromethyl)phenyl]methyl}-2-N,7-N,7-N,7-tetramethyl-1-(2-methylphenyl)-6-oxo-octahydropyrrolo[1,2-a]piperazine-2,7-dicarboxamide], the “Human in vitro Clint (mL/min/g liver)” value in data set [1] stood at 1.0 mL/min/g liver. Also, the IC50 on NK1 receptor was 0.661 nM.

Regarding `Cc1ccccc1[C@H]1[C@@H]2CC(CO)(CO)C(=O)N2CCN1C(=O)N(C)[C@H](C)c1cc(Cl)cc(C(F)(F)F)c1` [Compound 108, (1S,8aS)-N-((R)-1-(3-chloro-5-(trifluoromethyl)phenyl)ethyl)-7,7-bis(hydroxymethyl)-N-methyl-6-oxo-1-o-tolylhexahydropyrrolo[1,2-a]pyrazine-2(1H)-carboxamide], the “Human in vitro Clint (mL/min/g liver)” value in data set [1] is listed as 4.3 mL/min/g liver. Also, on NK1 receptor, the IC50 is 0.0316 nM.

Turning to `Cc1ccccc1C1C2CC(CN3CCOCC3)C(=O)N2CCN1C(=O)N(C)Cc1cc(C(F)(F)F)cc(C(F)(F)F)c1` (single isomer, unassigned) [Compound 41], the “Human in vitro Clint (mL/min/g liver)” value in data set [1] is 2.9 mL/min/g liver. Also, the IC50 on NK1 receptor was 0.224 nM.

Turning to `Cc1ccccc1[C@H]1[C@@H]2CCC(=O)N2CCN1C(=O)N(C)[C@H](C)c1cc(C(C)C)cc(C(F)(F)F)c1` [Compound 112, (1S,8aS)-N-((R)-1-(3-isopropyl-5-(trifluoromethyl)phenyl)ethyl)-N-methyl-6-oxo-1-o-tolylhexahydropyrrolo[1,2-a]pyrazine-2(1H)-carboxamide], the “Human in vitro Clint (mL/min/g liver)” value in data set [1] amounted to 51 mL/min/g liver. Moreover, at NK1 receptor, the IC50 was 0.0316 nM.

For `Cc1cc([C@@H](C)N(C)C(=O)N2CCN3C(=O)C(CO)C[C@H]3[C@@H]2c2ccccc2C)cc(C(F)(F)F)c1` (stereo partly drawn) [Compound 102, (1S,8aS)-7-(hydroxymethyl)-N-methyl-N-((R)-1-(3-methyl-5-(trifluoromethyl)phenyl)ethyl)-6-oxo-1-o-tolylhexahydropyrrolo[1,2-a]pyrazine-2(1H)-carboxamide], in data set [1], the “Human in vitro Clint (mL/min/g liver)” value was 5.6 mL/min/g liver. The IC50 at NK1 receptor is 0.214 nM.

As for `CCc1cc([C@@H](C)N(C)C(=O)N2CCN3C(=O)CC[C@H]3[C@@H]2c2ccccc2C)cc(C(F)(F)F)c1` [Compound 109, (1S,8aS)-N-((R)-1-(3-ethyl-5-(trifluoromethyl)phenyl)ethyl)-N-methyl-6-oxo-1-o-tolylhexahydropyrrolo[1,2-a]pyrazine-2(1H)-carboxamide], in data set [1], the “Human in vitro Clint (mL/min/g liver)” value was 13 mL/min/g liver. Also, on NK1 receptor, the IC50 is 0.1 nM.

As to `Cc1ccccc1[C@H]1[C@@H]2CC(CCO)(CCO)C(=O)N2CCN1C(=O)N(C)[C@H](CO)c1cccc(C(F)(F)F)c1` [Compound 96, (1S,8aS)-N-((S)-2-hydroxy-1-(3-(trifluoromethyl)phenyl)ethyl)-7,7-bis(2-hydroxyethyl)-N-methyl-6-oxo-1-o-tolylhexahydropyrrolo[1,2-a]pyrazine-2(1H)-carboxamide], the “Human in vitro Clint (mL/min/g liver)” value in data set [1] stood at 4.8 mL/min/g liver. At NK1 receptor, the IC50 is 0.0794 nM.
